Key:
Vibrio cholerae [1] = test: Antibacterial activity against Vibrio cholerae by broth microdilution method; format: functional
Vibrio vulnificus [2] = test: Antibacterial activity against Vibrio vulnificus assessed as percent susceptible isolates by broth microdilution method; format: functional
Aeromonas sobria [3] = test: Antibacterial activity against Aeromonas sobria assessed as percent resistant isolates by broth microdilution method; format: functional
Yersinia enterocolitica [4] = test: Antibacterial activity against Yersinia enterocolitica assessed as percent susceptible isolates by broth microdilution method; format: functional
Vibrio parahaemolyticus [5] = test: Antibacterial activity against Vibrio parahaemolyticus assessed as percent resistant isolates by broth microdilution method; format: functional
Escherichia coli [6] = test: Antibacterial activity against Escherichia coli assessed as percent resistant isolates by broth microdilution method; format: functional
Campylobacter jejuni [7] = test: Antibacterial activity against Campylobacter jejuni assessed as percent resistant isolates by broth microdilution method; format: functional; settings: pooled result: one value given for 2 cell lines, strains, targets or settings
Aeromonas veronii [8] = test: Antibacterial activity against Aeromonas veronii assessed as percent susceptible isolates by broth microdilution method; format: functional
Aeromonas sobria [9] = test: Antibacterial activity against Aeromonas sobria assessed as percent susceptible isolates by broth microdilution method; format: functional
Vibrio alginolyticus [10] = test: Antibacterial activity against Vibrio alginolyticus assessed as percent susceptible isolates by broth microdilution method; format: functional
Salmonella typhimurium [11] = test: Antibacterial activity against Salmonella enterica serovar Typhimurium assessed as percent resistant isolates by broth microdilution method; format: functional, Salmonella enterica subsp. enterica serovar Typhimurium; settings: pooled result: one value given for 8 cell lines, strains, targets or settings
Salmonella typhimurium [12] = test: Antibacterial activity against Salmonella enterica serovar Typhimurium by broth microdilution method; format: functional, Salmonella enterica subsp. enterica serovar Typhimurium
Shigella dysenteriae = test: Antibacterial activity against Shigella dysenteriae by broth microdilution method; format: functional
Vibrio alginolyticus [13] = test: Antibacterial activity against Vibrio alginolyticus assessed as percent resistant isolates by broth microdilution method; format: functional
Salmonella enteritidis [14] = test: Antibacterial activity against Salmonella enterica serovar Enteritidis assessed as percent susceptible isolates by broth microdilution method; format: functional, Salmonella enterica subsp. enterica serovar Enteritidis; settings: pooled result: one value given for 5 cell lines, strains, targets or settings
Plesiomonas shigelloides [15] = test: Antibacterial activity against Plesiomonas shigelloides by broth microdilution method; format: functional
Vibrio alginolyticus [16] = test: Antibacterial activity against Vibrio alginolyticus by broth microdilution method; format: functional
Shigella boydii [17] = test: Antibacterial activity against Shigella boydii by broth microdilution method; format: functional
Vibrio parahaemolyticus [18] = test: Antibacterial activity against Vibrio parahaemolyticus by broth microdilution method; format: functional
Vibrio cholerae [19] = test: Antibacterial activity against Vibrio cholerae assessed as percent susceptible isolates by broth microdilution method; format: functional
Yersinia enterocolitica [20] = test: Antibacterial activity against Yersinia enterocolitica by broth microdilution method; format: functional
Aeromonas veronii [21] = test: Antibacterial activity against Aeromonas veronii by broth microdilution method; format: functional
Campylobacter jejuni [22] = test: Antibacterial activity against Campylobacter jejuni by broth microdilution method; format: functional
Campylobacter coli = test: Antibacterial activity against Campylobacter coli by broth microdilution method; format: functional
Yersinia enterocolitica [23] = test: Antibacterial activity against Yersinia enterocolitica assessed as percent resistant isolates by broth microdilution method; format: functional
Aeromonas caviae [24] = test: Antibacterial activity against Aeromonas caviae by broth microdilution method; format: functional
Vibrio fluvialis [25] = test: Antibacterial activity against Vibrio fluvialis by broth microdilution method; format: functional
Vibrio fluvialis [26] = test: Antibacterial activity against Vibrio fluvialis assessed as percent resistant isolates by broth microdilution method; format: functional
Vibrio vulnificus [27] = test: Antibacterial activity against Vibrio vulnificus by broth microdilution method; format: functional
Plesiomonas shigelloides [28] = test: Antibacterial activity against Plesiomonas shigelloides assessed as percent resistant isolates by broth microdilution method; format: functional
Aeromonas caviae [29] = test: Antibacterial activity against Aeromonas caviae assessed as percent susceptible isolates by broth microdilution method; format: functional
Aeromonas caviae [30] = test: Antibacterial activity against Aeromonas caviae assessed as percent resistant isolates by broth microdilution method; format: functional
Aeromonas hydrophila [31] = test: Antibacterial activity against Aeromonas hydrophila by broth microdilution method; format: functional
Vibrio vulnificus [32] = test: Antibacterial activity against Vibrio vulnificus assessed as percent resistant isolates by broth microdilution method; format: functional
Salmonella enteritidis [33] = test: Antibacterial activity against Salmonella enterica serovar Enteritidis by broth microdilution method; format: functional, Salmonella enterica subsp. enterica serovar Enteritidis
Shigella flexneri = test: Antibacterial activity against Shigella flexneri by broth microdilution method; format: functional
Aeromonas hydrophila [34] = test: Antibacterial activity against Aeromonas hydrophila assessed as percent susceptible isolates by broth microdilution method; format: functional
Shigella sonnei [35] = test: Antibacterial activity against Shigella sonnei by broth microdilution method; format: functional
Vibrio sp. [36] = test: Antibacterial activity against Vibrio sp. assessed as percent susceptible isolates by broth microdilution method; format: functional
Escherichia coli [37] = test: Antibacterial activity against Escherichia coli assessed as percent susceptible isolates by broth microdilution method; format: functional
Vibrio sp. [38] = test: Antibacterial activity against Vibrio sp. assessed as percent resistant isolates by broth microdilution method; format: functional
Escherichia coli [39] = test: Antibacterial activity against Escherichia coli by broth microdilution method; format: functional
Plesiomonas shigelloides [40] = test: Antibacterial activity against Plesiomonas shigelloides assessed as percent susceptible isolates by broth microdilution method; format: functional
Shigella sonnei [41] = test: Antibacterial activity against Shigella sonnei assessed as percent resistant isolates by broth microdilution method; format: functional; settings: pooled result: one value given for 4 cell lines, strains, targets or settings
Shigella boydii [42] = test: Antibacterial activity against Shigella boydii assessed as percent susceptible isolates by broth microdilution method; format: functional; settings: pooled result: one value given for 3 cell lines, strains, targets or settings
[43] = test system: Yersinia pseudotuberculosis; test: Antibacterial activity against Yersinia pseudotuberculosis by broth microdilution method; format: functional
Vibrio fluvialis [44] = test: Antibacterial activity against Vibrio fluvialis assessed as percent susceptible isolates by broth microdilution method; format: functional
Aeromonas veronii [45] = test: Antibacterial activity against Aeromonas veronii assessed as percent resistant isolates by broth microdilution method; format: functional
Campylobacter jejuni [46] = test: Antibacterial activity against Campylobacter jejuni assessed as percent susceptible isolates by broth microdilution method; format: functional; settings: pooled result: one value given for 2 cell lines, strains, targets or settings
Vibrio parahaemolyticus [47] = test: Antibacterial activity against Vibrio parahaemolyticus assessed as percent susceptible isolates by broth microdilution method; format: functional
Aeromonas sobria [48] = test: Antibacterial activity against Aeromonas sobria by broth microdilution method; format: functional
Vibrio cholerae [49] = test: Antibacterial activity against Vibrio cholerae assessed as percent resistant isolates by broth microdilution method; format: functional
Aeromonas hydrophila [50] = test: Antibacterial activity against Aeromonas hydrophila assessed as percent resistant isolates by broth microdilution method; format: functional
Vibrio sp. [51] = test: Antibacterial activity against Vibrio sp. by broth microdilution method; format: functional

C[C@H]1c2cccc(O)c2C(=O)C2=C(O)[C@]3(O)C(=O)C(C(N)=O)=C(O)[C@@H](N(C)C)[C@@H]3[C@@H](O)[C@@H]21.O [DOXYCYCLINE]
MIC (Vibrio cholerae [1]): ≤ 0.12 µg/mL
MIC50 (Vibrio cholerae [1]): ≤ 0.12 µg/mL
MIC90 (Vibrio cholerae [1]): ≤ 0.12 µg/mL
Activity (Vibrio vulnificus [2]): 100%
Activity (Aeromonas sobria [3]): 0%
Activity (Yersinia enterocolitica [4]): 95.7%
Activity (Vibrio parahaemolyticus [5]): 0%
Activity (Escherichia coli [6]): 16%
Activity (Campylobacter jejuni [7]): 33.9%
Activity (Aeromonas veronii [8]): 100%
Activity (Aeromonas sobria [9]): 100%
Activity (Vibrio alginolyticus [10]): 100%
Activity (Salmonella typhimurium [11]): 13.9%
MIC50 (Salmonella typhimurium [12]): 2 µg/mL
MIC90 (Salmonella typhimurium [12]): 32 µg/mL
MIC50 (Shigella dysenteriae): 16 µg/mL
MIC90 (Shigella dysenteriae): 32 µg/mL
Activity (Vibrio alginolyticus [13]): 0%
Activity (Salmonella enteritidis [14]): 82.2%
MIC (Plesiomonas shigelloides [15]): ≤ 0.12 µg/mL
MIC50 (Plesiomonas shigelloides [15]): ≤ 0.12 µg/mL
MIC (Vibrio alginolyticus [16]): ≤ 0.12 µg/mL
MIC50 (Vibrio alginolyticus [16]): ≤ 0.12 µg/mL
MIC90 (Vibrio alginolyticus [16]): ≤ 0.12 µg/mL
MIC50 (Shigella boydii [17]): 16 µg/mL
MIC90 (Shigella boydii [17]): 32 µg/mL
MIC (Vibrio parahaemolyticus [18]): ≤ 0.12 µg/mL
MIC50 (Vibrio parahaemolyticus [18]): ≤ 0.12 µg/mL
MIC90 (Vibrio parahaemolyticus [18]): ≤ 0.12 µg/mL
Activity (Vibrio cholerae [19]): 100%
MIC50 (Yersinia enterocolitica [20]): 1 µg/mL
MIC90 (Yersinia enterocolitica [20]): 2 µg/mL
MIC50 (Aeromonas veronii [21]): 0.5 µg/mL
MIC90 (Aeromonas veronii [21]): 1 µg/mL
MIC (Campylobacter jejuni [22]): ≤ 0.12 µg/mL
MIC50 (Campylobacter jejuni [22]): ≤ 0.12 µg/mL
MIC90 (Campylobacter jejuni [22]): 16 µg/mL
MIC (Campylobacter coli): ≤ 0.12 µg/mL
MIC50 (Campylobacter coli): ≤ 0.12 µg/mL
MIC90 (Campylobacter coli): 16 µg/mL
Activity (Yersinia enterocolitica [23]): 4.3%
MIC50 (Aeromonas caviae [24]): 0.5 µg/mL
MIC90 (Aeromonas caviae [24]): 1 µg/mL
MIC (Vibrio fluvialis [25]): ≤ 0.12 µg/mL
MIC50 (Vibrio fluvialis [25]): ≤ 0.12 µg/mL
MIC90 (Vibrio fluvialis [25]): ≤ 0.12 µg/mL
Activity (Vibrio fluvialis [26]): 0%
MIC (Vibrio vulnificus [27]): ≤ 0.12 µg/mL
MIC50 (Vibrio vulnificus [27]): ≤ 0.12 µg/mL
MIC90 (Vibrio vulnificus [27]): ≤ 0.12 µg/mL
Activity (Plesiomonas shigelloides [28]): 0%
Activity (Aeromonas caviae [29]): 100%
Activity (Aeromonas caviae [30]): 0%
MIC50 (Aeromonas hydrophila [31]): 0.5 µg/mL
MIC90 (Aeromonas hydrophila [31]): 1 µg/mL
Activity (Vibrio vulnificus [32]): 0%
MIC50 (Salmonella enteritidis [33]): 2 µg/mL
MIC90 (Salmonella enteritidis [33]): 32 µg/mL
MIC50 (Shigella flexneri): 16 µg/mL
MIC90 (Shigella flexneri): 32 µg/mL
Activity (Aeromonas hydrophila [34]): 100%
MIC50 (Shigella sonnei [35]): 16 µg/mL
MIC90 (Shigella sonnei [35]): 32 µg/mL
Activity (Vibrio sp. [36]): 100%
Activity (Escherichia coli [37]): 76%
Activity (Vibrio sp. [38]): 0%
MIC50 (Escherichia coli [39]): 2 µg/mL
MIC90 (Escherichia coli [39]): 16 µg/mL
Activity (Plesiomonas shigelloides [40]): 100%
Activity (Shigella sonnei [41]): 52.5%
Activity (Shigella boydii [42]): 34.7%
MIC50 [43]: 1 µg/mL
MIC90 [43]: 2 µg/mL
Activity (Vibrio fluvialis [44]): 100%
Activity (Aeromonas veronii [45]): 0%
Activity (Campylobacter jejuni [46]): 59.6%
Activity (Vibrio parahaemolyticus [47]): 100%
MIC50 (Aeromonas sobria [48]): 0.5 µg/mL
MIC90 (Aeromonas sobria [48]): 1 µg/mL
Activity (Vibrio cholerae [49]): 0%
Activity (Aeromonas hydrophila [50]): 0%
MIC (Vibrio sp. [51]): ≤ 0.12 µg/mL
MIC50 (Vibrio sp. [51]): ≤ 0.12 µg/mL
MIC90 (Vibrio sp. [51]): ≤ 0.12 µg/mL

Reference: ChEMBL document CHEMBL1629662, “Antimicrobial activity of prulifloxacin tested against a worldwide collection of gastroenteritis-producing pathogens, including those causing traveler's diarrhea” (2009)
